Laboratory results taken from patent US10494332B2, “Protein tyrosine phosphatases or SHP2 inhibitors and uses thereof” (Indiana University Research and Technology Corporation, priority 2015, dated 2019).

Assays:
Format in all cases: biochemical
PEST = target: T1, PEST (Homo sapiens, UniProt Q05209); experiment: PTP inhibition assay (pNPP); conditions: pNPP at Km, pH 7.0, 25° C.; read-out: IC50 PEST
T1 sequence (Q05209 1-780): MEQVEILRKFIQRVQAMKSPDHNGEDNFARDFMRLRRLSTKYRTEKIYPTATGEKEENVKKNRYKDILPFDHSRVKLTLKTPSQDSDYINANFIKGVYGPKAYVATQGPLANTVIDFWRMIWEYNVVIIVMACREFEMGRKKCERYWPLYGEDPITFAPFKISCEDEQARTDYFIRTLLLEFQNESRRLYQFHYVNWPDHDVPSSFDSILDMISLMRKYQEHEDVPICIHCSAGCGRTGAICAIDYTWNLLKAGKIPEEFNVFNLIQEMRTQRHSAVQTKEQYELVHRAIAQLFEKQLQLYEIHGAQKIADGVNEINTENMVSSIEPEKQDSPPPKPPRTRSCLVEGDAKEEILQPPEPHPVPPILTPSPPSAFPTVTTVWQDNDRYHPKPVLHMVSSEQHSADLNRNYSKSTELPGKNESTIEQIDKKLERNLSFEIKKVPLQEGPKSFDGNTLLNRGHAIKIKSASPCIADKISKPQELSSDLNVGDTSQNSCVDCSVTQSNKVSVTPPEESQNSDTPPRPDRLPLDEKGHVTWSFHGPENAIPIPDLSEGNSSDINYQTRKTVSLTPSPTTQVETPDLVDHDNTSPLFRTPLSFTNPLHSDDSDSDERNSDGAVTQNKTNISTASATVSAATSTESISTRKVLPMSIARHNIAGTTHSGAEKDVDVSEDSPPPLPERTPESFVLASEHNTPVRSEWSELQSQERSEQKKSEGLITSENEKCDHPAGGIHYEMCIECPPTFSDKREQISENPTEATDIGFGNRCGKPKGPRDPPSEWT

LMWPTP = target: T2, LMWPTP (Homo sapiens, UniProt P24666); experiment: PTP inhibition assay (pNPP)
T2 sequence (P24666 1-158): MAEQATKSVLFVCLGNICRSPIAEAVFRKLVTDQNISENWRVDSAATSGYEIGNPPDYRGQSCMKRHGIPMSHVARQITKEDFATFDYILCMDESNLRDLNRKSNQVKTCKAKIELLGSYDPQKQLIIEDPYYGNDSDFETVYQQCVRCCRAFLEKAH

Laforin = target: T3, Laforin (Homo sapiens, UniProt O95278); experiment: PTP inhibition assay (pNPP); conditions: for IC50: pNPP at Km, pH 7.0, 25° C., read-out: IC50 Laforin
T3 sequence (O95278 1-331): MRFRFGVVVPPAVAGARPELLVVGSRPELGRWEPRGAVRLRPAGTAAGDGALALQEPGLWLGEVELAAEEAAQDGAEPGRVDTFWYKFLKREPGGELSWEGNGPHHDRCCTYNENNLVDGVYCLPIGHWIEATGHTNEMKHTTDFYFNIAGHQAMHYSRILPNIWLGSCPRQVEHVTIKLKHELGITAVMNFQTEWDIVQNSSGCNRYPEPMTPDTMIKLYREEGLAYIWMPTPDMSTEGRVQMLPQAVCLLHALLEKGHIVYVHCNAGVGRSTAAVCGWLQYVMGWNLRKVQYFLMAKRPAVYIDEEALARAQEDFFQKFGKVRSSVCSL

SHP1 = SHP1 (Homo sapiens, UniProt P29350); experiment: PTP inhibition assay (pNPP); conditions: pNPP at Km, pH 7.0, 25° C.
Sequence of SHP1 (P29350 whole entry): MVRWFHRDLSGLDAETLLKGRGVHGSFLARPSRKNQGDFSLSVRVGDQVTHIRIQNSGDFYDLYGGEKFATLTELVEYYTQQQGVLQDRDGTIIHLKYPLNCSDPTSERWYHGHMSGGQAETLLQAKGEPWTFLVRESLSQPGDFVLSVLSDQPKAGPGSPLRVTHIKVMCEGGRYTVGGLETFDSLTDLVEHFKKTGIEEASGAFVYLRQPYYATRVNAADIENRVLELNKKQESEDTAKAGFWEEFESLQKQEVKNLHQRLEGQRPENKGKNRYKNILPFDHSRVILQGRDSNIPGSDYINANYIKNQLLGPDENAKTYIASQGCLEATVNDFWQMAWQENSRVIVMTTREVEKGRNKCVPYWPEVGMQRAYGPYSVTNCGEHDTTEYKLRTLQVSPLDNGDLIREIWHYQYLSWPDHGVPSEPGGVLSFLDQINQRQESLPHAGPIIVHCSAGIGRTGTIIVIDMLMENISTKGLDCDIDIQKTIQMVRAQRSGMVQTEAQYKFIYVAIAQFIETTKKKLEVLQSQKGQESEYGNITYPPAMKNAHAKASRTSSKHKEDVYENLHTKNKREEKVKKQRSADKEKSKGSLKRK

TbPTP1 = TbPTP1 (Trypanosoma brucei brucei, UniProt Q38AT7); experiment: PTP inhibition assay (pNPP); conditions: IC50 TbPTP1, pNPP at Km, pH 7.0, 25° C.
Sequence of TbPTP1 (Q38AT7 entry or part of it): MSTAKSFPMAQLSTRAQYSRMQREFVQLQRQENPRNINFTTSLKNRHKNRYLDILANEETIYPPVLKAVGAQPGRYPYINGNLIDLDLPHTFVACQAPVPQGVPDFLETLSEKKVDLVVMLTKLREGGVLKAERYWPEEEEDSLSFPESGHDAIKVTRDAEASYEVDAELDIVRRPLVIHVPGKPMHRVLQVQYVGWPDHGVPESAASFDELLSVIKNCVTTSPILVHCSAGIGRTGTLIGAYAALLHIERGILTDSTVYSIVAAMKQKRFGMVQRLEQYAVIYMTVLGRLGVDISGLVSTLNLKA

VHX = target: T4, VHX (Homo sapiens, UniProt Q9NRW4); experiment: PTP inhibition assay (pNPP); conditions: IC50 VHX, pNPP at Km, pH 7.0, 25° C.
T4 sequence (Q9NRW4 1-184): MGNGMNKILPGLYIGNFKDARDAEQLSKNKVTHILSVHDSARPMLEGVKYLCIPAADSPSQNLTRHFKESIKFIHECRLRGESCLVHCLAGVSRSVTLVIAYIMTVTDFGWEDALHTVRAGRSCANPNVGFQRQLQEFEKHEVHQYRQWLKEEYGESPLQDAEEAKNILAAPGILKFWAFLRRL

STEP = target: T5, STEP (Homo sapiens, UniProt P54829); experiment: PTP inhibition assay (pNPP); conditions: IC50 STEP, pNPP at Km, pH 7.0, 25° C.
T5 sequence (P54829 1-565): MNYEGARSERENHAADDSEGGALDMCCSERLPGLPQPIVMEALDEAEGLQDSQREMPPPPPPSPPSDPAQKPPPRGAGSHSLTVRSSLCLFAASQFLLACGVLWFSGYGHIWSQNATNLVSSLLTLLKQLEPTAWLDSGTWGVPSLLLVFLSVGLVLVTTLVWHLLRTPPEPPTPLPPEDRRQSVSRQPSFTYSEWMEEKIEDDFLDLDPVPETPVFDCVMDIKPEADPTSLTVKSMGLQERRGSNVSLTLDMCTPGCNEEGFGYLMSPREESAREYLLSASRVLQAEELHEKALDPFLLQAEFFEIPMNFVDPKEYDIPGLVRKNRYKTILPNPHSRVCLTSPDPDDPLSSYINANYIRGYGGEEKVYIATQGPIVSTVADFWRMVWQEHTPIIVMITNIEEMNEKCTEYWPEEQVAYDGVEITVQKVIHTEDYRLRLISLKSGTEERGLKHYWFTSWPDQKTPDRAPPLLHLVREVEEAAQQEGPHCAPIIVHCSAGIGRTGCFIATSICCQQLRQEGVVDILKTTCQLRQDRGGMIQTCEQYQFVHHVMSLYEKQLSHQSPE

SHP2 = target: T6, SHP2 (Homo sapiens, UniProt Q06124); experiment: SHP2 phosphatase inhibition assay (pNPP); conditions: pNPP at Km, pH 7.0, 25° C.; read-out: IC50 SHP2
T6 sequence (Q06124 224-528): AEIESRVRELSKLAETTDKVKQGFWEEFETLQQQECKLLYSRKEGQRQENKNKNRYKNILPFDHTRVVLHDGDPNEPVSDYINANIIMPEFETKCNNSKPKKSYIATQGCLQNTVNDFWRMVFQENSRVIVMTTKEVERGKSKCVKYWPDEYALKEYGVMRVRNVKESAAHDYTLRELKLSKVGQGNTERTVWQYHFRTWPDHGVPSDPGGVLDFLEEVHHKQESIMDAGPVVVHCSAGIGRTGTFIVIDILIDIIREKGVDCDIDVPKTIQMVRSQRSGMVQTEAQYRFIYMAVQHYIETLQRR

CD45 = target: T7, CD45 (Homo sapiens, UniProt P08575); experiment: PTP inhibition assay (pNPP); conditions: pNPP at Km, pH 7.0, 25° C.
T7 sequence (P08575 26-1306): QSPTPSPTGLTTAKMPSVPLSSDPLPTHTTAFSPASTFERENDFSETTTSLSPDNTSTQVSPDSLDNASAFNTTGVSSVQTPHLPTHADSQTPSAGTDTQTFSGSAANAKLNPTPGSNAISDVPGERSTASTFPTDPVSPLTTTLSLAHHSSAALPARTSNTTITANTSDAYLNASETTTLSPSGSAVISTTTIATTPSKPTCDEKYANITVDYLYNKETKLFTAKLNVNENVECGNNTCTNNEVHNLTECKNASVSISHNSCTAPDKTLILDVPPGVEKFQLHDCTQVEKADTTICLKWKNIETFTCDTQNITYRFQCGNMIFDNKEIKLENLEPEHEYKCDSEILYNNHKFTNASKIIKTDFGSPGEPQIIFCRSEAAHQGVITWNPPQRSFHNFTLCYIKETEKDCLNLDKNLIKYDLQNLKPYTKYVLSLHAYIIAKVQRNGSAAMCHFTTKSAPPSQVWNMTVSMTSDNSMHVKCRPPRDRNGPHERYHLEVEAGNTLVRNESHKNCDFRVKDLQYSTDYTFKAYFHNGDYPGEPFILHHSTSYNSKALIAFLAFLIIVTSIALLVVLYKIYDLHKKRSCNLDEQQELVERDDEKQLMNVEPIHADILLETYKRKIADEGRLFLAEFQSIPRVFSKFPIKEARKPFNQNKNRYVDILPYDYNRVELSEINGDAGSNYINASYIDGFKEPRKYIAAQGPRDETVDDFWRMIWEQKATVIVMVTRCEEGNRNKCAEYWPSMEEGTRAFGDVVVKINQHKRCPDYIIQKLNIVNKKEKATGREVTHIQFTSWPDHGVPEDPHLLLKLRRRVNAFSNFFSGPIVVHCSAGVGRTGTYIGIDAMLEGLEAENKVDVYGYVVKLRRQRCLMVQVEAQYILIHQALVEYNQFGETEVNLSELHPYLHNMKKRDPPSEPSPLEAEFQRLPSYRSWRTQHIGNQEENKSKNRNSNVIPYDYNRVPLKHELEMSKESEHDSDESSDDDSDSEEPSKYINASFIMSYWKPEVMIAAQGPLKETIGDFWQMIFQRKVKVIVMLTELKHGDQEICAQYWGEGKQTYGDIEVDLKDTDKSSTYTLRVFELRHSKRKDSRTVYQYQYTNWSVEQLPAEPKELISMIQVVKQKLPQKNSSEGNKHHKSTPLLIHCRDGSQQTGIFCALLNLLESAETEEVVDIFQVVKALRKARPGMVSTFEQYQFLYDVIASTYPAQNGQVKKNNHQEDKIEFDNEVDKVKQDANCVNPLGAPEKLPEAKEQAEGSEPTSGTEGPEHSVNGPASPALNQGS

LYP = target: T8, LYP (Homo sapiens, UniProt Q9Y2R2); experiment: PTP inhibition assay (pNPP); conditions: pNPP at Km, pH 7.0, 25° C.
T8 sequence (Q9Y2R2 1-807): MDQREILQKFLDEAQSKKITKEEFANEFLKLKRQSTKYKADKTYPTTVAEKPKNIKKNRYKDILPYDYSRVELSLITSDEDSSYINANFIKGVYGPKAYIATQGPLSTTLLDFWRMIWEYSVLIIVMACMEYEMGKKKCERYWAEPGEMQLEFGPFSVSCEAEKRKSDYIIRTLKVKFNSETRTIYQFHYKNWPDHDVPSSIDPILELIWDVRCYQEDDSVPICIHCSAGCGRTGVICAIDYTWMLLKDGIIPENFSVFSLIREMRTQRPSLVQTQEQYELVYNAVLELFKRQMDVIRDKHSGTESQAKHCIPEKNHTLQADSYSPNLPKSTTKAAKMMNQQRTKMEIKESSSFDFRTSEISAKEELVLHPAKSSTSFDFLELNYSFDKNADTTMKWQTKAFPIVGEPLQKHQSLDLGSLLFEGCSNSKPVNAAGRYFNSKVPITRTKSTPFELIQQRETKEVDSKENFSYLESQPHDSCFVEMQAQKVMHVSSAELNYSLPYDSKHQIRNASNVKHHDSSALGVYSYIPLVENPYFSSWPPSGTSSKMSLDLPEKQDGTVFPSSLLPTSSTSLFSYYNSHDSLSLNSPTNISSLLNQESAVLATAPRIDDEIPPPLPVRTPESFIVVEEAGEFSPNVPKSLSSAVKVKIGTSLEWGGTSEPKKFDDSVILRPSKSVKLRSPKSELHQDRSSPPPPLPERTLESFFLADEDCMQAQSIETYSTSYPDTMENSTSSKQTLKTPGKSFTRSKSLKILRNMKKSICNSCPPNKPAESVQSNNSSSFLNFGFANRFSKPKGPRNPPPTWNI

PTP1B = target: T9, PTP1B (Homo sapiens, UniProt P18031); experiment: PTP inhibition assay (pNPP); conditions: pNPP at Km, pH 7.0, 25° C.
T9 sequence (P18031 1-435): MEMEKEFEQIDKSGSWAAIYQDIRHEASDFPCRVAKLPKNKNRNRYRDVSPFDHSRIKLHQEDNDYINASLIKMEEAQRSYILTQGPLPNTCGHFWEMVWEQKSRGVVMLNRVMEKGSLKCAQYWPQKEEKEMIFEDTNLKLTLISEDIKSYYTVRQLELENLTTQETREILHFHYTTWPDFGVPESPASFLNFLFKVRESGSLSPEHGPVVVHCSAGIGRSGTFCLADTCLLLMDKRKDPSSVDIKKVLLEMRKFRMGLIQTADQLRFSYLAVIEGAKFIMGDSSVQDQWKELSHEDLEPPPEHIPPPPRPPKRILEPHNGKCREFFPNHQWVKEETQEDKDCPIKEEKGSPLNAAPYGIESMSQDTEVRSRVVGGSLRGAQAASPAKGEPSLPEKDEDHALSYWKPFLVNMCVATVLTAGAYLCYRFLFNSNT

Row | SMILES | IC50 (PEST) [µM] | IC50 (LMWPTP; pNPP at Km, pH 7.0, 25° C.) [µM] | IC50 (Laforin) [µM] | IC50 (SHP1) [µM] | other results
1 | O=C(O)Cc1csc(NC(=O)C(c2ccccc2)S(=O)(=O)O)n1 (centres unmarked) [Compound L319N72] | > 200 | 98.1 | 4.8 |  | 
2 | O=C(Nc1ccc(-n2ccnc2)cc1)C(c1ccccc1)S(=O)(=O)O (centres unmarked) [Compound L319M63] |  |  |  | > 200 | IC50 (TbPTP1): > 100 µM; IC50 (VHX): > 200 µM; IC50 (STEP): > 100 µM; IC50 (LMWPTP; pH 7): 7.7 µM
3 | O=C(Nc1nnc(-c2ccccc2)s1)C(c1ccccc1)S(=O)(=O)O (centres unmarked) [Compound L319M73-2] | > 200 | 10.2 | 1.3 |  | Fold specificity for Laforin over LMPTP (Laforin; ratio of IC50): 8 fold; Fold specificity for Laforin over other PTPs (Laforin; ratio of IC50): 100 fold
4 | CO[C@@]1(NC(=O)C(C(=O)O)c2ccc(O)cc2)C(=O)N2C(C(=O)O)=C(CSc3nnnn3C)CO[C@@H]21 (some centres unmarked) [moxalactam, reference compound] |  |  |  | 170 | 
5 | O=C(Nc1nc2ccccc2s1)C(c1ccccc1F)S(=O)(=O)O (centres unmarked) [Compound L319N15-17] |  | > 100 | 14 |  | IC50 (SHP2): > 100 µM; IC50 (CD45): > 100 µM; IC50 (LYP): > 100 µM; IC50 (PTP1B): > 100 µM
